Measured values reported in ChEMBL document CHEMBL1201862, “PubChem BioAssay data set” (2004).
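Following 48 hours of exposure in 96-well plates, responses at five concentrations were used to interpolate endpoints linearly. GI50 = concentration required for 50% inhibition of growth.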 The source made the active and inactive calls. Rule as the data show it: active = GI50 up to about 1.1 µM and inactive = higher.

Columns and labels:
Test in all cases: NCI tumour cell line growth inhibition, 48 h
[1] = test system: KM12
[2] = test system: A549
[3] = test system: OVCAR-4
[4] = test system: Malme-3M
[5] = test system: HL-60
[6] = test system: U-251
[7] = test system: OVCAR-3
[8] = test system: SF-268
[9] = test system: COLO 205
[10] = test system: SR
[11] = test system: MDA-MB-435
[12] = test system: CCRF-CEM
[13] = test system: LOX IMVI
[14] = test system: MCF7
[15] = test system: OVCAR-8
[16] = test system: NCI-H226
[17] = test system: SNB-19
[18] = test system: HOP-92
[19] = test system: SW-620
[20] = test system: Hs-578T

| SMILES | GI50 [1] | GI50 [2] | GI50 [3] | GI50 [4] | GI50 [5] | GI50 [6] | GI50 [7] | GI50 [8] | GI50 [9] | GI50 [10] | GI50 [11] | GI50 [12] | GI50 [13] | GI50 [14] | GI50 [15] | GI50 [16] | GI50 [17] | GI50 [18] | GI50 [19] | GI50 [20] |
| --- | --- | --- | --- | --- | --- | --- | --- | --- | --- | --- | --- | --- | --- | --- | --- | --- | --- | --- | --- | --- |
| COC(=O)c1ccc(C)cc1C1CN=NC12Cc1cc(C)ccc1C2=O (stereo not given) | 6.14 µM (inactive) | 25.4 µM (inactive) | 26.2 µM (inactive) | 13.2 µM (inactive) | 3.58 µM (inactive) | 11.7 µM (inactive) | 9.14 µM (inactive) | 25.6 µM (inactive) | 6.44 µM (inactive) | 4.41 µM (inactive) | 2.18 µM (inactive) | 15.9 µM (inactive) | 10.4 µM (inactive) | 3.61 µM (inactive) | 27.2 µM (inactive) | 21.2 µM (inactive) | 18.8 µM (inactive) | 21.7 µM (inactive) | 5.35 µM (inactive) | 8.67 µM (inactive) |
| CC1=CC(c2ccccc2)n2c(nc3cc4ccccc4cc32)N1 (stereo not given) | > 100 µM (inactive) | > 100 µM (inactive) | > 100 µM (inactive) | > 100 µM (inactive) | > 100 µM (inactive) | > 100 µM (inactive) | > 100 µM (inactive) | > 100 µM (inactive) | > 100 µM (inactive) | 90.4 µM (inactive) | > 100 µM (inactive) | > 100 µM (inactive) | > 100 µM (inactive) | > 100 µM (inactive) | > 100 µM (inactive) | > 100 µM (inactive) | > 100 µM (inactive) | > 100 µM (inactive) | > 100 µM (inactive) | > 100 µM (inactive) |
| C[C@@H](Cl)[C@H]1CCCN(Cc2ccc(Br)cc2)C1 | > 12.5 µM (inactive) | > 12.5 µM (inactive) | > 12.5 µM (inactive) | > 12.5 µM (inactive) | > 12.5 µM (inactive) | > 12.5 µM (inactive) | > 12.5 µM (inactive) | > 12.5 µM (inactive) | > 12.5 µM (inactive) | > 12.5 µM (inactive) | > 12.5 µM (inactive) | > 12.5 µM (inactive) | > 12.5 µM (inactive) | > 12.5 µM (inactive) | > 12.5 µM (inactive) | > 12.5 µM (inactive) | > 12.5 µM (inactive) | > 12.5 µM (inactive) | > 12.5 µM (inactive) | > 12.5 µM (inactive) |
| Cc1ccc(-c2n[nH]c(=O)[nH]2)cc1 | > 100 µM (inactive) | > 100 µM (inactive) | > 100 µM (inactive) | > 100 µM (inactive) | > 100 µM (inactive) | > 100 µM (inactive) | > 100 µM (inactive) | > 100 µM (inactive) | > 100 µM (inactive) | > 100 µM (inactive) | > 100 µM (inactive) | > 100 µM (inactive) | > 100 µM (inactive) | > 100 µM (inactive) | > 100 µM (inactive) | > 100 µM (inactive) | > 100 µM (inactive) | 44.9 µM (inactive) | > 100 µM (inactive) | > 100 µM (inactive) |
| C[C@H]1CCC/C=C/[C@@H]2C[C@H](OC(=O)CN(C)C)C[C@H]2[C@H](O)/C=C/C(=O)O1 | 0.0522 µM (active) | 0.286 µM (active) | 0.154 µM (active) | 0.0738 µM (active) | 0.22 µM (active) | 0.254 µM (active) | 0.169 µM (active) | 0.2 µM (active) | 0.0476 µM (active) | 0.153 µM (active) | 0.157 µM (active) | 0.284 µM (active) | 0.0861 µM (active) | 0.187 µM (active) | 0.097 µM (active) | 0.0288 µM (active) | 0.319 µM (active) | 1.03 µM (active) | 0.156 µM (active) | 0.0458 µM (active) |
| C/C(=N/NC(=S)N(Cc1ccccn1)Cc1ccccn1)c1cnccn1 | 0.427 µM (active) | 0.329 µM (active) | 0.288 µM (active) | 0.0472 µM (active) | 0.126 µM (active) | 0.129 µM (active) | 0.646 µM (active) | 0.418 µM (active) | 0.0861 µM (active) | 0.578 µM (active) | 0.897 µM (active) | 0.0551 µM (active) | 0.133 µM (active) | 0.565 µM (active) | 0.0303 µM (active) | < 0.0178 µM (active) | 0.962 µM (active) | 1.23 µM (inactive) | 0.288 µM (active) | 6.46 µM (inactive) |
| Cc1cc(-c2nc3ccc(F)cc3s2)ccc1NC(=O)[C@H](C)N | 3.97 µM (inactive) | 5.83 µM (inactive) | 10.2 µM (inactive) | 21.3 µM (inactive) | 2.07 µM (inactive) | 3.48 µM (inactive) | 8.59 µM (inactive) | 10 µM (inactive) | 9.77 µM (inactive) | 2.07 µM (inactive) | 2.49 µM (inactive) | 1.64 µM (inactive) | 1.99 µM (inactive) | < 0.0186 µM (active) | 11.6 µM (inactive) | 2.7 µM (inactive) | 14.3 µM (inactive) | 10.7 µM (inactive) | 3.83 µM (inactive) | 10.8 µM (inactive) |
| CC1(C)CC(=O)C2=C(C1)C(c1ccccc1Cl)C1C(=O)CC(C)(C)CC1(O)O2 (stereo not given) | > 100 µM (inactive) | > 100 µM (inactive) | > 100 µM (inactive) | > 100 µM (inactive) | 4.91 µM (inactive) | > 100 µM (inactive) | > 100 µM (inactive) | > 100 µM (inactive) | > 31.6 µM (inactive) | 28.1 µM (inactive) | 25.9 µM (inactive) | 26.8 µM (inactive) | > 68.2 µM (inactive) | 37.3 µM (inactive) | > 86.7 µM (inactive) | > 100 µM (inactive) | > 100 µM (inactive) | > 100 µM (inactive) | 43.7 µM (inactive) | > 72.3 µM (inactive) |
| CC(C)C(NC(=O)C(Cc1ccccc1)NC(=O)[C@H]1CCC[C@H]1NC(=O)C(N)Cc1ccc(O)cc1)C(N)=O (stereo not given in full) | > 100 µM (inactive) | > 100 µM (inactive) | > 100 µM (inactive) | > 100 µM (inactive) | > 100 µM (inactive) | > 100 µM (inactive) | > 100 µM (inactive) | > 100 µM (inactive) | > 100 µM (inactive) | > 100 µM (inactive) | > 100 µM (inactive) | > 100 µM (inactive) | > 100 µM (inactive) | > 100 µM (inactive) | > 100 µM (inactive) | > 100 µM (inactive) | > 100 µM (inactive) | > 100 µM (inactive) | > 100 µM (inactive) | > 100 µM (inactive) |
| CO[C@H]1C[C@H](O[C@H]2CC[C@]3(C=O)[C@H]4CC[C@]5(C)[C@@H](C6=CC(=O)OC6)CC[C@]5(O)[C@@H]4CC[C@]3(O)C2)O[C@H](C)[C@H]1O[C@@H]1O[C@H](CO[C@@H]2O[C@H](CO)[C@@H](O)[C@H](O)[C@H]2O)[C@@H](O)[C@H](O)[C@H]1O | 0.104 µM (active) | < 0.0131 µM (active) | 0.0281 µM (active) | 0.0588 µM (active) | 0.0361 µM (active) | 0.0658 µM (active) | 0.0241 µM (active) | 0.0356 µM (active) | 0.103 µM (active) | 0.0188 µM (active) | 0.166 µM (active) | > 100 µM (inactive) | 0.0373 µM (active) | 0.0546 µM (active) | 0.0434 µM (active) | 0.171 µM (active) | 0.186 µM (active) | 0.0845 µM (active) | 0.0593 µM (active) | 0.0278 µM (active) |
| c1cn[nH]c1 [PYRAZOLE] | > 10 µM (inactive) | > 10 µM (inactive) | > 10 µM (inactive) | > 10 µM (inactive) | > 10 µM (inactive) | > 10 µM (inactive) | > 10 µM (inactive) | > 10 µM (inactive) | > 10 µM (inactive) | > 10 µM (inactive) | > 10 µM (inactive) | > 10 µM (inactive) | > 10 µM (inactive) | > 10 µM (inactive) | > 10 µM (inactive) | > 10 µM (inactive) | > 10 µM (inactive) | > 10 µM (inactive) | > 10 µM (inactive) | > 10 µM (inactive) |
